Test results taken from ChEMBL document CHEMBL5528067, “From Synergy to Monotherapy: Discovery of Novel 2,4,6-Trisubstituted Triazine Hydrazone Derivatives with Potent Antifungal Potency In Vitro and In Vivo” (J Med Chem, 2024).

Experiments:
Type in all cases: functional
[1] = tested on: Candida albicans; test: Synergistic antifungal activity against FCZ-resistant Candida albicans strain 901 assessed as fractional inhibitory concentration index measured after 48 hrs in presence of FCZ by CLSI based micro-dilution broth method
[2] = tested on: Candida albicans; test: Antifungal activity against FCZ-resistant Candida albicans strain 904 assessed as growth inhibition measured after 48 hrs incubation by CLSI based micro-dilution broth method
[3] = tested on: Candida albicans; test: Synergistic antifungal activity against FCZ-resistant Candida albicans strain 904 assessed as fractional inhibitory concentration index measured after 48 hrs in presence of FCZ by CLSI based micro-dilution broth method
[4] = tested on: Candida albicans; test: Antifungal activity against FCZ-resistant Candida albicans strain 904 assessed as growth inhibition in presence of fluconazole measured after 48 hrs incubation by CLSI based micro-dilution broth method
[5] = tested on: Candida albicans; test: Antifungal activity against FCZ-resistant Candida albicans strain 901 assessed as growth inhibition in presence of fluconazole measured after 48 hrs incubation by CLSI based micro-dilution broth method
[6] = tested on: Candida albicans; test: Antifungal activity against FCZ-resistant Candida albicans strain 901 assessed as growth inhibition measured after 48 hrs incubation by CLSI based micro-dilution broth method

SMILES | fractional inhibitory concentration index (FICI) [1] | MIC80 [2] [µg/mL] | fractional inhibitory concentration index (FICI) [3] | MIC80 [4] [µg/mL] | MIC80 [5] [µg/mL] | MIC80 [6] [µg/mL]
O=[N+]([O-])c1ccc(O)cc1/C=N/Nc1nc(NCc2ccc(F)cc2)nc(NCc2ccc(F)cc2)n1 | 0.25 | > 64 | 0.25 | 8 | 8 | > 64
Oc1cccc(/C=N/Nc2nc(NCc3ccc(F)cc3)nc(NCc3ccc(F)cc3)n2)c1 | 0.25 | > 64 | 0.25 | 8 | 8 | > 64
Fc1ccc(CNc2nc(NCc3ccc(F)cc3)nc(N/N=C/c3ccc(Br)cc3)n2)cc1 | 1.13 | > 64 | 1.13 | > 64 | > 64 | > 64
O=[N+]([O-])c1c(O)cccc1/C=N/Nc1nc(NCc2ccc(F)cc2)nc(NCc2ccc(F)cc2)n1 | 1.13 | > 64 | 1.13 | > 64 | > 64 | > 64
Fc1ccc(CNc2nc(NCc3ccc(F)cc3)nc(N/N=C/c3ccccc3Cl)n2)cc1 | 1.13 | > 64 | 1.13 | > 64 | > 64 | > 64
Fc1ccc(CNc2nc(NCc3ccc(F)cc3)nc(N/N=C/c3ccc(OC(F)(F)F)cc3)n2)cc1 | 1.13 | > 64 | 1.13 | > 64 | > 64 | > 64
Fc1ccc(/C=N/Nc2nc(NCc3ccc(F)cc3)nc(NCc3ccc(F)cc3)n2)cc1 | 1.13 | > 64 | 1.13 | > 64 | > 64 | > 64
Fc1ccc(CNc2nc(NCc3ccc(F)cc3)nc(N/N=C/c3ccc(Cl)cc3)n2)cc1 | 1.13 | > 64 | 1.13 | > 64 | > 64 | > 64
O=[N+]([O-])c1ccccc1/C=N/Nc1nc(NCc2ccc(F)cc2)nc(NCc2ccc(F)cc2)n1 | 1.13 | > 64 | 1.13 | > 64 | > 64 | > 64
O=[N+]([O-])c1cc(/C=N/Nc2nc(NCc3ccc(F)cc3)nc(NCc3ccc(F)cc3)n2)ccc1O | 0.25 | > 64 | 0.19 | 4 | 8 | > 64
Fc1ccc(CNc2nc(NCc3ccc(F)cc3)nc(N/N=C/c3cccc(F)c3)n2)cc1 | 1.13 | > 64 | 1.13 | > 64 | > 64 | > 64
Fc1ccc(CNc2nc(NCc3ccc(F)cc3)nc(N/N=C/c3cccc(Cl)c3)n2)cc1 | 1.13 | > 64 | 1.13 | > 64 | > 64 | > 64
O=[N+]([O-])c1cc(O)ccc1/C=N/Nc1nc(NCc2ccc(F)cc2)nc(NCc2ccc(F)cc2)n1 | 0.16 | > 64 | 0.16 | 2 | 2 | > 64
N#Cc1ccc(/C=N/Nc2nc(NCc3ccc(F)cc3)nc(NCc3ccc(F)cc3)n2)cc1 | 1.13 | > 64 | 1.13 | > 64 | > 64 | > 64
Oc1ccc(/C=N/Nc2nc(NCc3ccc(F)cc3)nc(NCc3ccc(F)cc3)n2)cc1 | 0.38 | > 64 | 0.38 | 16 | 16 | > 64
Fc1ccc(CNc2nc(NCc3ccc(F)cc3)nc(N/N=C/c3ccc(C(F)(F)F)cc3)n2)cc1 | 1.13 | > 64 | 1.13 | > 64 | > 64 | > 64
